Assay results reported in BindingDB's records for doi:10.7270/Q2J67FB5 (Nmmlsc, 2007).

Target: T1, fMet-Leu-Phe receptor (Homo sapiens, UniProt P21462)
T1 sequence (P21462 whole entry): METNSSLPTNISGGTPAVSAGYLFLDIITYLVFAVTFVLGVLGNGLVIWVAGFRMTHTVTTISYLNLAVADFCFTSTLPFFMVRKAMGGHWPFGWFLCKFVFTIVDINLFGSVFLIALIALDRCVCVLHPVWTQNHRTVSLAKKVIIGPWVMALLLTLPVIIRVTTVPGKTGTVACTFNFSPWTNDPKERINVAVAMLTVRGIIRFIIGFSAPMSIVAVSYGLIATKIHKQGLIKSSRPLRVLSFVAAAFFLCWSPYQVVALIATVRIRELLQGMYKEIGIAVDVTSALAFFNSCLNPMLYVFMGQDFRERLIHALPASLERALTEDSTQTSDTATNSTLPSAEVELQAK
Experiment: FPR ligands, dose response (AID 519)

SMILES	IC50 [µM]
COCCCN1C(=O)C(=O)C(C(=O)c2ccccc2)C1c1ccc2c(c1)OCO2 (stereo not given) [(4E)-5-(1,3-benzodioxol-5-yl)-1-(3-methoxypropyl)-4-[oxidanyl(phenyl)methylidene]pyrrolidine-2,3-dione]	29.6
COc1ccc(C(=O)C2C(=O)C(=O)N(Cc3ccco3)C2c2ccc(OC)cc2OC)cc1 (stereo not given) [(4E)-5-(2,4-dimethoxyphenyl)-1-(2-furanylmethyl)-4-[hydroxy-(4-methoxyphenyl)methylidene]pyrrolidine-2,3-dione]	> 66.7
CC1Cc2cc(C(=O)C3C(=O)C(=O)N(CCN4CCOCC4)C3c3ccccc3F)ccc2O1 (stereo not given) [(4E)-5-(2-fluorophenyl)-4-[(2-methyl-2,3-dihydro-1-benzofuran-5-yl)-oxidanyl-methylidene]-1-(2-morpholin-4-ylethyl)pyrrolidine-2,3-dione]	> 66.7
Cc1ccc(C(=O)C2C(=O)C(=O)N(c3cc(C)on3)C2c2cccc(Br)c2)cc1 (stereo not given) [(4E)-5-(3-bromophenyl)-1-(5-methyl-1,2-oxazol-3-yl)-4-[(4-methylphenyl)-oxidanyl-methylidene]pyrrolidine-2,3-dione]	> 66.7
Cc1cc(N2C(=O)C(=O)C(C(=O)c3ccc(F)cc3)C2c2cccc(Br)c2)no1 (stereo not given) [(4E)-5-(3-bromophenyl)-4-[(4-fluorophenyl)-hydroxy-methylene]-1-(5-methylisoxazol-3-yl)pyrrolidine-2,3-quinone]	> 66.7
Cc1ccc(C(=O)C2C(=O)C(=O)N(CC(C)O)C2c2ccc(N(C)C)cc2)cc1 (stereo not given) [(4E)-5-[4-(dimethylamino)phenyl]-1-(2-hydroxypropyl)-4-[hydroxy(p-tolyl)methylene]pyrrolidine-2,3-quinone]	> 66.7
CCOc1cccc(C(=O)C2C(=O)C(=O)N(Cc3ccco3)C2c2ccncc2)c1 (stereo not given) [(4Z)-1-(2-furfuryl)-4-[hydroxy(m-phenetyl)methylene]-5-(4-pyridyl)pyrrolidine-2,3-quinone]	> 66.7
COc1ccccc1C1C(C(=O)c2ccccc2)C(=O)C(=O)N1CCO (stereo not given) [(4Z)-1-(2-hydroxyethyl)-4-[hydroxy(phenyl)methylene]-5-(2-methoxyphenyl)pyrrolidine-2,3-quinone]	19.7
CCOc1ccc(C(=O)C2C(=O)C(=O)N(c3nc(C)c(C)s3)C2c2ccco2)cc1 (stereo not given) [(4Z)-1-(4,5-dimethyl-1,3-thiazol-2-yl)-4-[(4-ethoxyphenyl)-hydroxymethylidene]-5-(furan-2-yl)pyrrolidine-2,3-dione]	57.7
COc1ccc(C(=O)C2C(=O)C(=O)N(c3nc(C)c(C)s3)C2c2ccco2)cc1 (stereo not given) [(4Z)-1-(4,5-dimethyl-1,3-thiazol-2-yl)-5-(furan-2-yl)-4-[(4-methoxyphenyl)-oxidanyl-methylidene]pyrrolidine-2,3-dione]	> 66.7
CCOc1cccc(C(=O)C2C(=O)C(=O)N(CCOC)C2c2ccc(C)o2)c1 (stereo not given) [(4Z)-4-[(3-ethoxyphenyl)-hydroxymethylidene]-1-(2-methoxyethyl)-5-(5-methyl-2-furanyl)pyrrolidine-2,3-dione]	13.5
CCOc1cccc(C(=O)C2C(=O)C(=O)N(Cc3cccnc3)C2c2ccco2)c1 (stereo not given) [(4Z)-4-[(3-ethoxyphenyl)-hydroxymethylidene]-5-(2-furanyl)-1-(3-pyridinylmethyl)pyrrolidine-2,3-dione]	> 66.7
Cc1ccc(C2C(C(=O)c3ccc(Br)cc3)C(=O)C(=O)N2Cc2ccco2)o1 (stereo not given) [(4Z)-4-[(4-bromophenyl)-hydroxy-methylene]-1-(2-furfuryl)-5-(5-methyl-2-furyl)pyrrolidine-2,3-quinone]	> 66.7
Cc1ccc(C2C(C(=O)c3ccc(Cl)cc3)C(=O)C(=O)N2CC2CCCO2)o1 (stereo not given) [(4Z)-4-[(4-chlorophenyl)-hydroxy-methylene]-5-(5-methyl-2-furyl)-1-(tetrahydrofurfuryl)pyrrolidine-2,3-quinone]	11.6
CCOc1ccc(C(=O)C2C(=O)C(=O)N(CC3CCCO3)C2c2ccco2)cc1 (stereo not given) [(4Z)-4-[(4-ethoxyphenyl)-hydroxymethylidene]-5-(2-furanyl)-1-(2-oxolanylmethyl)pyrrolidine-2,3-dione]	32
CCOc1ccc(C(=O)C2C(=O)C(=O)N(CC3CCCO3)C2c2ccc(C)o2)cc1 (stereo not given) [(4Z)-4-[(4-ethoxyphenyl)-hydroxymethylidene]-5-(5-methyl-2-furanyl)-1-(2-oxolanylmethyl)pyrrolidine-2,3-dione]	21.1
COc1ccc(C(=O)C2C(=O)C(=O)N(CCN3CCOCC3)C2c2ccc(C)cc2)cc1 (stereo not given) [(4Z)-4-[(4-methoxyphenyl)-oxidanyl-methylidene]-5-(4-methylphenyl)-1-(2-morpholin-4-ylethyl)pyrrolidine-2,3-dione]	> 66.7
Cc1ccc(C(=O)C2C(=O)C(=O)N(CCN3CCOCC3)C2c2cccnc2)cc1 (stereo not given) [(4Z)-4-[(4-methylphenyl)-oxidanyl-methylidene]-1-(2-morpholin-4-ylethyl)-5-pyridin-3-yl-pyrrolidine-2,3-dione]	> 66.7
COc1ccccc1C1C(C(=O)c2ccccc2)C(=O)C(=O)N1CC(C)O (stereo not given) [(4Z)-4-[hydroxy(phenyl)methylene]-1-(2-hydroxypropyl)-5-(2-methoxyphenyl)pyrrolidine-2,3-quinone]	24.6
COc1ccccc1C1C(C(=O)c2ccccc2)C(=O)C(=O)N1CC(C)C (stereo not given) [(4Z)-4-[hydroxy(phenyl)methylene]-1-isobutyl-5-(2-methoxyphenyl)pyrrolidine-2,3-quinone]	5.5
Cc1ccc(C2C(C(=O)c3cnn(-c4ccccc4)c3C)C(=O)C(=O)N2CCN2CCOCC2)o1 (stereo not given) [(4Z)-4-[hydroxy-(5-methyl-1-phenyl-4-pyrazolyl)methylidene]-5-(5-methyl-2-furanyl)-1-[2-(4-morpholinyl)ethyl]pyrrolidine-2,3-dione]	23.2
COc1ccc(C2C(C(=O)c3ccccc3)C(=O)C(=O)N2CC(C)O)c(OC)c1 (stereo not given) [(4Z)-5-(2,4-dimethoxyphenyl)-4-[hydroxy(phenyl)methylene]-1-(2-hydroxypropyl)pyrrolidine-2,3-quinone]	38.6
COc1ccc(OC)c(C2C(C(=O)c3ccccc3)C(=O)C(=O)N2Cc2ccco2)c1 (stereo not given) [(4Z)-5-(2,5-dimethoxyphenyl)-1-(2-furanylmethyl)-4-[hydroxy(phenyl)methylidene]pyrrolidine-2,3-dione]	3.4
COc1cccc(C(=O)C2C(=O)C(=O)N(Cc3cccnc3)C2c2ccco2)c1 (stereo not given) [(4Z)-5-(2-furanyl)-4-[hydroxy-(3-methoxyphenyl)methylidene]-1-(3-pyridinylmethyl)pyrrolidine-2,3-dione]	> 66.7
O=C1Nc2ccccc2/C1=C1/SC(=S)N(CC2CCCO2)C1=O (stereo not given) [(5Z)-5-(2-ketoindolin-3-ylidene)-3-(tetrahydrofurfuryl)-2-thioxo-thiazolidin-4-one]	> 66.7
C=C(c1ccc(Br)cc1)c1sc(N2CCCC2)nc1O [(5Z)-5-[1-(4-bromophenyl)ethylidene]-2-(1-pyrrolidinyl)-4-thiazolone]	> 66.7
O=c1c(C23CC4CC(CC(C4)C2)C3)c(O)n(-c2ccccc2)n1-c1ccccc1 [MLS000526352]	11.5
CCN(CC)c1ccc(C=NC(C#N)C(=N)C#N)cc1 (stereo not given) [SMR000023871]	> 66.7
COc1cccc(OC)c1C(=O)C(C#N)c1nc2ccccc2[nH]1 (stereo not given) [SMR000024183]	> 66.7
COC(=O)c1[nH]c(C)c(C(=O)C2C(=O)C(=O)N(CCCN3CCOCC3)C2c2ccccn2)c1C (stereo not given) [methyl 4-{[4-hydroxy-1-[3-(4-morpholinyl)propyl]-5-oxo-2-(2-pyridinyl)-2,5-dihydro-1H-pyrrol-3-yl]carbonyl}-3,5-dimethyl-1H-pyrrole-2-carboxylate]	9.7
